Here are results for 18 compounds from patent US20260191858A1, “COMBINATION THERAPIES” (Kallyope, Inc., priority 2022, published 2026).

The assay concerns the target T1, human GPR119 (hGPR119) (Homo sapiens, UniProt Q8TDV5).
T1 construct: expressed in transfected cells; host or cells: CHO-K1
T1 sequence (Q8TDV5 1-335): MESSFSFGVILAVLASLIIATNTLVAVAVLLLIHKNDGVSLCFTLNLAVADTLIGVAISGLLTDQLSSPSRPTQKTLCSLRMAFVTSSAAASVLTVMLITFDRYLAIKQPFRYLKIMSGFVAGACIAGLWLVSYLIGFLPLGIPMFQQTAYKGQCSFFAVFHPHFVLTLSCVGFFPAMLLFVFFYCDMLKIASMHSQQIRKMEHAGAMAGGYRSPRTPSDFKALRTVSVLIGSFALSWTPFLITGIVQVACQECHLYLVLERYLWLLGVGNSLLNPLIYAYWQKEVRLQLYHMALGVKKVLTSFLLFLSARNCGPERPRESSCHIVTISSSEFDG
Put plainly: cAMP accumulation assay in CHO-K1 cells stably expressing hGPR119. The settings on record: cAMP HTRF, 60 minutes. Type of assay: cell-based. The protocol:
CHO-K1 cells stably expressing human GPR119 (hGPR119) were prepared by transfection of a GPR119-carrying plasmid using Lipofectamine 2000 (following manufacturer instructions). A stable cell line was established using the limiting dilution method with geneticine selection. Assay-ready frozen (ARF) cells were prepared and used throughout the study.
The assay was performed in a 384-well plate format using the CAMP Gs dynamic assay kit from Cisbio. ARF cells expressing hGPR119 were thawed, washed and then resuspended in CAMP stimulation buffer at a cell density of 1.1×10^6 cells/mL. Cells were plated at a density of ~10,000 cells/well (9 μL/well). Dose response curves for the tested compounds were prepared in a cAMP stimulation buffer, containing 0.1% Tween 80 at 4 fold the final concentration. The compounds were then transferred to the cell plates using BRAVO (3 μL/well) and the plates were incubated for 60 minutes at 37° C./5% CO2. Detection buffer (10 μL, prepared as described in the CAMP Gs dynamic kit) were added to each well, and the plates were incubated at ambient temperature for 1 hr.
RT-FRET was measured using a ClarioSTAR plate reader, calculating the ratio between emissions at 665 nm and 620 nm (HTRF ratio). The HTRF ratio for positive (Max) and negative (Min) controls were used to normalize HTRF data and generate values for % activity. EC50 and Max activity values were determined using a standard 4-parameter fit.
(cAMP levels reflect the balance of adenylyl cyclase and phosphodiesterase activity.)

pEC50: −log10 of the molar value.

The pEC50 is −log10 of the EC50, conventionally taken in molar units.

As for `O=C(Cc1ccc(OCCCC2CCN(c3ncc(Cl)cn3)CC2)cc1F)N1CC(CCNC[C@H](O)[C@@H](O)[C@H](O)[C@H](O)CO)C1` [Compound A31, 2-[4-[3-[1-(5-chloropyrimidin-2-yl)-4-piperidyl]propoxy]-2-fluoro-phenyl]-1-[3-[2-[[(2S,3R,4R,5R)-2,3,4,5,6-pentahydroxyhexyl]amino]ethyl]azetidin-1-yl]ethanone], the pEC50 was 6.00 to 7.00.
In turn, `CCc1cnc(N2CCC(CCCOc3cc(F)c(CC(=O)N4CC(CNCCNC(=O)NC(CO)(CO)CO)C4)c(F)c3)CC2)nc1` [Compound A38, 1-(1,3-dihydroxy-2-(hydroxymethyl)propan-2-yl)-3-(2-(((1-(2-(4-(3-(1-(5-ethylpyrimidin-2-yl)piperidin-4-yl)propoxy)-2,6-difluorophenyl)acetyl)azetidin-3-yl)methyl)amino)ethyl)urea] had a pEC50 of at least 7.00.
`CCc1cnc(N2CCC(CCCOc3ccc(CC(=O)N4CC(CNC(CO)(CO)CO)C4)c(F)c3)CC2)nc1` [Compound A34, 1-(3-(((1,3-dihydroxy-2-(hydroxymethyl)propan-2-yl)amino)methyl)azetidin-1-yl)-2-(4-(3-(1-(5-ethylpyrimidin-2-yl)piperidin-4-yl)propoxy)-2-fluorophenyl)ethan-1-one] gave a pEC50 of at least 7.00.
For `O=C(Cc1ccc(OCCCC2CCN(c3ncc(Cl)cn3)CC2)cc1F)N1CC(CNC(CO)(CO)CO)C1` [Compound A16, 2-[4-[3-[1-(5-chloropyrimidin-2-yl)-4-piperidyl]propoxy]-2-fluoro-phenyl]-1-[3-[[[2-hydroxy-1,1-bis(hydroxymethyl)ethyl]amino]methyl]azetidin-1-yl]ethanone] the value was at least 7.00.
Compound `CCc1cnc(N2CCC(CCCOc3cc(F)c(CC(=O)N4CC(CNCC(O)(CO)CO)C4)c(F)c3)CC2)nc1` [Compound A37, 1-(3-(((2,3-dihydroxy-2-(hydroxymethyl)propyl)amino)methyl)azetidin-1-yl)-2-(4-(3-(1-(5-ethylpyrimidin-2-yl)piperidin-4-yl)propoxy)-2,6-difluorophenyl)ethan-1-one] showed a pEC50 of at least 7.00.
For `O=C(Cc1ccc(OCCCC2CCN(c3ncc(Cl)cn3)CC2)cc1F)N1CC(O)(CNC[C@H](O)[C@H](O)[C@H](O)CO)C1` [Compound A72, 2-[4-[3-[1-(5-chloropyrimidin-2-yl)-4-piperidyl]propoxy]-2-fluoro-phenyl]-1-[3-hydroxy-3-[[[(2S,3S,4R)-2,3,4,5-tetrahydroxypentyl]amino]methyl]azetidin-1-yl]ethanone] the value was at least 7.00; for `O=C(NC(CO)(CO)CO)C1CN(C(=O)Cc2ccc(OCCCC3CCN(c4ncc(Cl)cn4)CC3)cc2F)C1` [Compound A4, 1-[2-[4-[3-[1-(5-chloropyrimidin-2-yl)-4-piperidyl]propoxy]-2-fluoro-phenyl]acetyl]-N-[2-hydroxy-1,1-bis(hydroxymethyl)ethyl]azetidine-3-carboxamide], at least 7.00.
Regarding `O=C(NCCS(=O)(=O)O)C1CN(C(=O)Cc2ccc(OCCCC3CCN(c4ncc(Cl)cn4)CC3)cc2F)C1` [Compound A63, 2-[[1-[2-[4-[3-[1-(5-chloropyrimidin-2-yl)-4-piperidyl]propoxy]-2-fluoro-phenyl]acetyl]azetidine-3-carbonyl]amino]ethanesulfonic acid], the pEC50 was 6.00 to 7.00.
For `COCc1cnc(N2CCC(CCCOc3cc(F)c(CC(=O)N4CC(CNC[C@H](O)[C@@H](O)[C@H](O)[C@H](O)CO)C4)c(F)c3)CC2)nc1` [Compound A56] the value was 6.00 to 7.00; for `O=C(Cc1ccc(OCCCC2CCN(c3ncc(Cl)cn3)CC2)cc1F)N1CC(CCNCC(CO)CO)C1` [Compound A27, 2-(4-(3-(1-(5-chloropyrimidin-2-yl)piperidin-4-yl)propoxy)-2-fluorophenyl)-1-(3-(2-((3-hydroxy-2-(hydroxymethyl)propyl)amino)ethyl)azetidin-1-yl)ethan-1-one], at least 7.00; for `O=C(Cc1ccc(OCCCC2CCN(c3ncc(Cl)cn3)CC2)cc1F)N1CC(CNCC(CO)CO)C1` [Compound A17], at least 7.00.
As for `O=C(Cc1ccc(OCCCC2CCN(c3ncc(CO)cn3)CC2)cc1F)N1CC(CNC[C@H](O)[C@@H](O)[C@H](O)[C@H](O)CO)C1` [Compound A55, 2-[2-fluoro-4-[3-[1-[5-(hydroxymethyl)pyrimidin-2-yl]-4-piperidyl]propoxy]phenyl]-1-[3-[[[(2S,3R,4R,5R)-2,3,4,5,6-pentahydroxyhexyl]amino]methyl]azetidin-1-yl]ethanone], the pEC50 was 5.00 to 6.00.
With `O=C(Cc1ccc(OCCCC2CCN(c3ncc(Cl)cn3)CC2)cc1F)N1CC(CNC[C@H](O)[C@@H](O)[C@H](O)[C@H](O)CO)C1` [Compound A14, 2-[4-[3-[1-(5-chloropyrimidin-2-yl)-4-piperidyl]propoxy]-2-fluoro-phenyl]-1-[3-[[[(2S,3R,4R,5R)-2,3,4,5,6-pentahydroxyhexyl]amino]methyl]azetidin-1-yl]ethanone], the pEC50 is 6.00 to 7.00.
For `CCCc1cnc(N2CCC(CCCOc3cc(F)c(CC(=O)N4CC(CNCCNC(=O)NC(CO)(CO)CO)C4)c(F)c3)CC2)nc1` [Compound A47, 1-(2-(((1-(2-(2,6-difluoro-4-(3-(1-(5-propylpyrimidin-2-yl)piperidin-4-yl)propoxy)phenyl)acetyl)azetidin-3-yl)methyl)amino)ethyl)-3-(1,3-dihydroxy-2-(hydroxymethyl)propan-2-yl)urea] the value was 6.00 to 7.00.
For `COc1cnc(N2CCC(CCCOc3ccc(CC(=O)N4CC(CNC[C@H](O)[C@@H](O)[C@H](O)[C@H](O)CO)C4)c(F)c3)CC2)nc1` (racemic) [Compound A49, 2-[2-fluoro-4-[3-[1-(5-methoxypyrimidin-2-yl)-4-piperidyl]propoxy]phenyl]-1-[3-[rac-(2S,3R,4R,5R)-2,3,4,5,6-pentahydroxyhexyl]amino]methyl]azetidin-1-yl]ethanone] the value was 6.00 to 7.00.
Next, `O=C(NCCO[C@H]1O[C@H](CO)[C@@H](O)[C@H](O)[C@@H]1O)C1CN(C(=O)Cc2ccc(OCCCC3CCN(c4ncc(Cl)cn4)CC3)cc2F)C1` (racemic) [Compound A6, 1-[2-[4-[3-[1-(5-chloropyrimidin-2-yl)-4-piperidyl]propoxy]-2-fluoro-phenyl]acetyl]-N-[2-[rac-(2S,3S,4S,5S,6R)-3,4,5-trihydroxy-6-(hydroxymethyl)tetrahydropyran-2-yl]oxyethyl]azetidine-3-carboxamide]: 6.00 to 7.00.
`O=C(Cc1ccc(OCCCC2CCN(c3ncc(Cl)cn3)CC2)cc1F)N1CC(CN2C[C@@H](O)[C@@H](O)[C@@H](O)C2)C1` [Compound A22, 2-[4-[3-[1-(5-chloropyrimidin-2-yl)-4-piperidyl]propoxy]-2-fluoro-phenyl]-1-[3-[[rac-(3R,5S)-3,4,5-trihydroxy-1-piperidyl]methyl]azetidin-1-yl]ethanone] gave a pEC50 of at least 7.00.
Next, `CCOc1cnc(N2CCC(CCCOc3ccc(CC(=O)N4CC(CNC[C@H](O)[C@@H](O)[C@H](O)[C@H](O)CO)C4)c(F)c3)CC2)nc1` (racemic) [Compound A50, 2-[4-[3-[1-(5-ethoxypyrimidin-2-yl)-4-piperidyl]propoxy]-2-fluoro-phenyl]-1-[3-[[[rac-(2S,3R,4R,5R)-2,3,4,5,6-pentahydroxyhexyl]amino]methyl]azetidin-1-yl]ethanone]: 6.00 to 7.00.
